# Assay results published in article PMC2854649 (Biochemical and biophysical research communications, 2009).
# Where two headings read alike, the source gives them in different places.
# Legend:
# CD1 mice = type: in vivo, mouse; details: for Percent Surviving: CD1 mice, survival recorded for 24 hrs
# CD3+ human PBMCs = assay: Radiation-induced apoptosis; type: cell-based; details: CD3+ human PBMCs exposed to 20 Gy radiation, Figure 1
# C57Bl/6J mice = type: in vivo, mouse; details: 2 mg in 200 μL saline via tail-vein injection, N=6
# [1] = tested on: primary human lymphocytes (PBMCs); assay: Cellular uptake and subcellular distribution of FITC-labeled peptides; type: cell-based; details: 5 μM fluorescein-labeled peptide, 1 h, RPMI with 10% FBS or serum-free PBS
# male C57Bl/6 mice = assay: Post-exposure treatment after lethal total body irradiation; type: in vivo, mouse; details: 1 mg dose, data not shown
substance,measurement,setting,value
"(d) ^1-Ac-RKKRR-Orn-RRR-COOH [TAT, reference compound]",Percent Surviving,CD1 mice; 2 mg i.p.,100%
same,Percent Surviving,CD1 mice; 5 mg i.p.,0%
(d) ^1-Ac-RKKRR-Orn-RRR-β-A-(l) ^1-SNRELVVDFLSDKLSQKGDS-COOH [TAT-BH4i],"Effect on radiation-induced apoptosis, in words",CD3+ human PBMCs,Neither TAT-BH4i nor NLS-BH4i had any appreciable effect
(d) ^1-Ac-RKKRR-Orn-RRR-β-A-(l) ^1-SNRELVVDFLSYKLSQKGYS-COOH [TAT-BH4],Appearance of mice the following day,CD1 mice; 2 mg i.p.,appeared normal
same,Percent Surviving,CD1 mice; 2 mg i.p.,100%
same,Percent Surviving,CD1 mice; 5 mg i.p.,75%
same,Appearance of surviving mice the following day,"CD1 mice; 5 mg or 20 mg i.p., necropsy: distended and edematous bowel, small necrotic foci",piloerection and distended abdomens
same,Percent Surviving,CD1 mice; 20 mg i.p.,25%
same,Time to death following injection,C57Bl/6J mice,3 to 5 min
Ac-KKKRKV-β-A-(l) ^1-SNRELVVDFLSDKLSQKGDS-COOH [NLS-BH4i],"Effect on radiation-induced apoptosis, in words",CD3+ human PBMCs,Neither TAT-BH4i nor NLS-BH4i had any appreciable effect
Ac-KKKRKV-β-A-(l) ^1-SNRELVVDFLSYKLSQKGYS-COOH [NLS-BH4],"Uptake by PBMCs (fluorescence intensity, flow cytometry)",[1],less dependent on the presence of serum
same,Percent Surviving,CD1 mice; 2 mg i.p.,100%
same,Percent Surviving,CD1 mice; 10 mg i.p.,100%
same,Percent Surviving,CD1 mice; 30 mg i.p.,100%
same,Tolerability of i.p. injections,"CD1 mice; 2, 5, or 0 mg i.p., N = 3 mice per group",without any apparent ill effects
same,Radiation-induced lymphocyte apoptosis in vivo (pilot study),male C57Bl/6 mice,significantly attenuated radiation-induced lymphocyte apoptosis
